Read-outs that look alike come from different tables or passages of the source.
What was measured:
Assay type in all cases: biochemical
[1] = target: T1, MUSK (Homo sapiens, UniProt O15146); assay: Kinase assay, ATP Km
T1 construct: purchased Carna Biosciences
T1 sequence (O15146 24-869): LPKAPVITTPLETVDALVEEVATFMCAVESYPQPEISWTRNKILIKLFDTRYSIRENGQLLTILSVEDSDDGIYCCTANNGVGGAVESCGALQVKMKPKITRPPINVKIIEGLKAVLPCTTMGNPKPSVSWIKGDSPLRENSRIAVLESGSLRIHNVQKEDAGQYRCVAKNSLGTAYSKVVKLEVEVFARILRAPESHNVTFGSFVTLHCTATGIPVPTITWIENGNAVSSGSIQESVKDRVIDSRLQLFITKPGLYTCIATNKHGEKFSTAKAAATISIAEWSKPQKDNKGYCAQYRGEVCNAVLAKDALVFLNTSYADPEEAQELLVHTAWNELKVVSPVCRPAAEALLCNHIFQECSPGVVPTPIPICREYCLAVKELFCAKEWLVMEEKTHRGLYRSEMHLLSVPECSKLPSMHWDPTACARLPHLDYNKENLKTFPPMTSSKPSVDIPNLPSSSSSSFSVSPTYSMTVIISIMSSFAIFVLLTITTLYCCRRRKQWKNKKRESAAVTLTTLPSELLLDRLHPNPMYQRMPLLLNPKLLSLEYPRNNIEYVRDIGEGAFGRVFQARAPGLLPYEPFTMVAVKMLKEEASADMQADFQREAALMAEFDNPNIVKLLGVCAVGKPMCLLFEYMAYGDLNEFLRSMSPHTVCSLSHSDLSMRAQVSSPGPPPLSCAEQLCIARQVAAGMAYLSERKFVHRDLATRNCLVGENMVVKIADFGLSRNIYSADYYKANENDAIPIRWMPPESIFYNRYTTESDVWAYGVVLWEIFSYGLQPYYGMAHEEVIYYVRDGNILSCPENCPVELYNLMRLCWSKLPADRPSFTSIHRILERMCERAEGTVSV

[2] = target: T2, ACK (Homo sapiens, UniProt Q07912); assay: Kinase assay, 1 mM ATP
T2 construct: purchased Carna Biosciences, Inc. (Kobe, Japan); assay run by the vendor
T2 sequence (Q07912 whole entry): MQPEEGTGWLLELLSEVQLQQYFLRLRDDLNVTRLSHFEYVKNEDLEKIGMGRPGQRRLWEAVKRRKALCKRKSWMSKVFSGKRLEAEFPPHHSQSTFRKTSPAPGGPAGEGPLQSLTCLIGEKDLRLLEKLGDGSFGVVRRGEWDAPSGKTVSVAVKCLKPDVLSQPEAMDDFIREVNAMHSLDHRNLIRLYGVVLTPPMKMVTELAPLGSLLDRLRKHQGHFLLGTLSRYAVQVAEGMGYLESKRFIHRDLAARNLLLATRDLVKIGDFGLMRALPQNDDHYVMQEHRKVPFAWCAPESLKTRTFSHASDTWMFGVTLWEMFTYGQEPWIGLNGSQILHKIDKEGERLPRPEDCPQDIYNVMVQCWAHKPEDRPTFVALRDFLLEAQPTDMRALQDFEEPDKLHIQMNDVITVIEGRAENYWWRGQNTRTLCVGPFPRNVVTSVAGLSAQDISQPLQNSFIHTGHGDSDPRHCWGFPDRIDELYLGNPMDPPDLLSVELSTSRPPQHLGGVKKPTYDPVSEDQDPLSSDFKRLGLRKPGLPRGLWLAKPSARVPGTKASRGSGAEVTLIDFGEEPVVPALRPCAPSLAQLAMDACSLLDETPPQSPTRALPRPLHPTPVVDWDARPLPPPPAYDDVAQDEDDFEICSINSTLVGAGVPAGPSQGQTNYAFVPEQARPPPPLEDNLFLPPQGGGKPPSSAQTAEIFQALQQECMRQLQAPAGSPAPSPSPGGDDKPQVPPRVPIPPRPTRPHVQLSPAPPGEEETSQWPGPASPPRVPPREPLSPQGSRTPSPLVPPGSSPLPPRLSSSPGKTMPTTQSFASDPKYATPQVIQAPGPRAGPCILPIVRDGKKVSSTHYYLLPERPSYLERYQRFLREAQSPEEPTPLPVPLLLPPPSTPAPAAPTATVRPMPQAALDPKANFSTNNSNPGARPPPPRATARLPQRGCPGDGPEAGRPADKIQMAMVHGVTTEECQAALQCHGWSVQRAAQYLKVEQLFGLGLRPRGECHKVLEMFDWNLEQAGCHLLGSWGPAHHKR

[3] = target: FYN(isoform a) (Homo sapiens, UniProt P06241); assay: Kinase assay, 1 mM ATP; design: purchased Carna Biosciences
Description: (§1) An off-chip mobility shift assay was performed by Carna Biosciences, Inc. (Kobe, Japan), according to their product instructions. […] The IC50 values were estimated according to the four-parameter logistic model.

[4] = target: FYN(isoform b) (Homo sapiens, UniProt P06241); assay: Kinase assay, 1 mM ATP; design: purchased Carna Biosciences
Description: as §1

[5] = target: PAK5 (Homo sapiens, UniProt Q9P286); assay: Kinase assay, ATP Km
[6] = target: T3, TRKB (NTRK2) (Homo sapiens, UniProt Q16620); assay: Kinase assay, ATP Km; conditions: for IC50: ATP: Km
T3 construct: purchased Carna Biosciences, Inc. (Kobe, Japan); assay run by the vendor
T3 sequence (Q16620 32-822): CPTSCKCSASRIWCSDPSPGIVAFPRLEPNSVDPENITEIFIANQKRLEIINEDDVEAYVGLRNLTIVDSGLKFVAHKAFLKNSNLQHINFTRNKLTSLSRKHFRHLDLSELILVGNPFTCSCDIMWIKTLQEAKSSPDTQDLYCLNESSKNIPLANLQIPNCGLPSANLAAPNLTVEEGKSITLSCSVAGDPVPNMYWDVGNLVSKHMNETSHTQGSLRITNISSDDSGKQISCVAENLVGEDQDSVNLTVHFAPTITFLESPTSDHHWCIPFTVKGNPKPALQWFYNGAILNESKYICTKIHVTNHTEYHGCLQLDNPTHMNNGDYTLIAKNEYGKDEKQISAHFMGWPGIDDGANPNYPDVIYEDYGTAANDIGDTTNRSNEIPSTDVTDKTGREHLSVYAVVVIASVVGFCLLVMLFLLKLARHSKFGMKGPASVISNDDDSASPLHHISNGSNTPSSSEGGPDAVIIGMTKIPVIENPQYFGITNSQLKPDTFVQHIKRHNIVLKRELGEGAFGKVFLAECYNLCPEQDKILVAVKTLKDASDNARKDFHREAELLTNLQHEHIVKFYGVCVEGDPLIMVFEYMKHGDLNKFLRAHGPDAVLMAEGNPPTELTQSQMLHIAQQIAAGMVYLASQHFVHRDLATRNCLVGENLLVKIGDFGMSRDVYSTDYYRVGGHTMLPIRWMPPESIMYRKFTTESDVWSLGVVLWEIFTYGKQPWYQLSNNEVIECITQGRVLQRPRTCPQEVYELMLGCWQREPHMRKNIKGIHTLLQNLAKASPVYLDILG

[7] = target: EPHA7 (Homo sapiens, UniProt Q15375); assay: Kinase assay, ATP Km
[8] = target: NEK7 (Homo sapiens, UniProt Q8TDX7); assay: Kinase assay, ATP Km
[9] = target: T4, KDR (Homo sapiens, UniProt P35968); assay: Kinase assay, ATP Km
T4 construct: purchased Carna Biosciences

[10] = target: AurA (Homo sapiens, UniProt O14965); assay: Kinase assay, ATP Km
[11] = target: T5, PBK (Homo sapiens, UniProt Q96KB5); assay: Kinase assay, 1 mM ATP
T5 construct: purchased Carna Biosciences
T5 sequence (Q96KB5 whole entry): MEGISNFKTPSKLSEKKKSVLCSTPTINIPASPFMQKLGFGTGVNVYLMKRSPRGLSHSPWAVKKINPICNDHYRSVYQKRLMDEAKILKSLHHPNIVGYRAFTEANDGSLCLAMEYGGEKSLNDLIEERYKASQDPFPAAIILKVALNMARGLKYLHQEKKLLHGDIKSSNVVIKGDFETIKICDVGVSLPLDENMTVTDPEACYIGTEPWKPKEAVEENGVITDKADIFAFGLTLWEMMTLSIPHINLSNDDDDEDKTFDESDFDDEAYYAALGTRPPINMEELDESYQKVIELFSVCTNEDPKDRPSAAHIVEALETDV
Description: as §1

[12] = target: T6, RET(S891A) (Homo sapiens, UniProt P07949, S891A); assay: Kinase assay, 1 mM ATP
T6 construct: purchased Carna Biosciences
Description: as §1

[13] = target: T7, MET (Homo sapiens, UniProt P08581); assay: Kinase assay, 1 mM ATP
T7 construct: purchased Carna Biosciences
Description: as §1

[14] = target: DYRK1A (Homo sapiens, UniProt Q13627); assay: Kinase assay, 1 mM ATP
Description: as §1

[15] = target: T8, MER (Homo sapiens, UniProt Q12866); assay: Kinase assay, 1 mM ATP
T8 construct: purchased Carna Biosciences
Description: as §1

[16] = target: p38β (Homo sapiens, UniProt Q15759); assay: Kinase assay, 1 mM ATP
Description: as §1

[17] = target: T9, PDGFRβ (Homo sapiens, UniProt P09619); assay: Kinase assay, 1 mM ATP
T9 construct: purchased Carna Biosciences
Description: as §1

[18] = target: T10, EGFR(T790M/L858R) (Homo sapiens, UniProt P00533, L858R/T790M); assay: Kinase assay, 1 mM ATP
T10 construct: purchased Carna Biosciences
Description: as §1

[19] = target: CLK2 (Homo sapiens, UniProt P49760); assay: Kinase assay, 1 mM ATP
Sequence of CLK2 (P49760 whole entry): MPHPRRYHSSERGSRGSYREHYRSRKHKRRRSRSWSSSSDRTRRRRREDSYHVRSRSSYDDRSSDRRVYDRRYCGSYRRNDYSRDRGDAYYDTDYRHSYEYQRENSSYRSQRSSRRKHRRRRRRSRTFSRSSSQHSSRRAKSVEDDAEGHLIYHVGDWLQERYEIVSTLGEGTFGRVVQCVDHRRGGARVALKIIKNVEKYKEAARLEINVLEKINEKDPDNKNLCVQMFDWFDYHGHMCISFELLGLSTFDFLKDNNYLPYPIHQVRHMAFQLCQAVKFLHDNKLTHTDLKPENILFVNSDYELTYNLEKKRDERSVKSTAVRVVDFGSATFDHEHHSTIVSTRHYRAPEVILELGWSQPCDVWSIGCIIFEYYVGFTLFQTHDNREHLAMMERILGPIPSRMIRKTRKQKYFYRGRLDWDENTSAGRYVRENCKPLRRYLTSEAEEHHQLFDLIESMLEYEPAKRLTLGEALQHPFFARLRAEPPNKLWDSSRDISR
Description: as §1

[20] = target: T11, NEK9 (Homo sapiens, UniProt Q8TD19); assay: Kinase assay, 1 mM ATP
T11 construct: purchased Carna Biosciences
T11 sequence (Q8TD19 whole entry): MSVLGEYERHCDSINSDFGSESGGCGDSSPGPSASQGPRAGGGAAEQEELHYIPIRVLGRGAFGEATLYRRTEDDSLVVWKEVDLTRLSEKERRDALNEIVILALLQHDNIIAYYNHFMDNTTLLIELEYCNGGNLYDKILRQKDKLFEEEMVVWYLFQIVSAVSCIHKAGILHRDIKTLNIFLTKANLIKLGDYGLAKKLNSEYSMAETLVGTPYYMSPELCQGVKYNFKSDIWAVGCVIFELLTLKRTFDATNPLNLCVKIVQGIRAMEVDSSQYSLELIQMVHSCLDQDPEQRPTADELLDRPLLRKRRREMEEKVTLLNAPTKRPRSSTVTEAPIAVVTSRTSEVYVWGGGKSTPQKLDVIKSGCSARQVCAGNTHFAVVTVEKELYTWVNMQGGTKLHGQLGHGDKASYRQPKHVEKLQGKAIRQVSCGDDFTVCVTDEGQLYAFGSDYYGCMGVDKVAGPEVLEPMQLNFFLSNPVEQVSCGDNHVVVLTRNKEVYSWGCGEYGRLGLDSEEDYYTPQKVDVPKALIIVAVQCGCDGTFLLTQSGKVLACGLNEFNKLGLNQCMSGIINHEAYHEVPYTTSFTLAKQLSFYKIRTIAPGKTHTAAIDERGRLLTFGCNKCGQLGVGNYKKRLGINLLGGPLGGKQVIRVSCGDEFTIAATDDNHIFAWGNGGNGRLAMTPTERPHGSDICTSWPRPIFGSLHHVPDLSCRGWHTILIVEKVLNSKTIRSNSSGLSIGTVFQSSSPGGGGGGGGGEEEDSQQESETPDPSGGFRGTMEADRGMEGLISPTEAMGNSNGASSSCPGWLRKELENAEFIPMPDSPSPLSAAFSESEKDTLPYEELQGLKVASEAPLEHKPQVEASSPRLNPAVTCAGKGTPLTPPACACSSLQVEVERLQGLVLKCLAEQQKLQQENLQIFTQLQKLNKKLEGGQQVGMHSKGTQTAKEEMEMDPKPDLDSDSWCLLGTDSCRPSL
Description: as §1

[21] = target: T12, LYNb (Homo sapiens, UniProt P07948); assay: Kinase assay, 1 mM ATP
T12 construct: purchased Carna Biosciences
T12 sequence (P07948 1-491 isoform P07948-2): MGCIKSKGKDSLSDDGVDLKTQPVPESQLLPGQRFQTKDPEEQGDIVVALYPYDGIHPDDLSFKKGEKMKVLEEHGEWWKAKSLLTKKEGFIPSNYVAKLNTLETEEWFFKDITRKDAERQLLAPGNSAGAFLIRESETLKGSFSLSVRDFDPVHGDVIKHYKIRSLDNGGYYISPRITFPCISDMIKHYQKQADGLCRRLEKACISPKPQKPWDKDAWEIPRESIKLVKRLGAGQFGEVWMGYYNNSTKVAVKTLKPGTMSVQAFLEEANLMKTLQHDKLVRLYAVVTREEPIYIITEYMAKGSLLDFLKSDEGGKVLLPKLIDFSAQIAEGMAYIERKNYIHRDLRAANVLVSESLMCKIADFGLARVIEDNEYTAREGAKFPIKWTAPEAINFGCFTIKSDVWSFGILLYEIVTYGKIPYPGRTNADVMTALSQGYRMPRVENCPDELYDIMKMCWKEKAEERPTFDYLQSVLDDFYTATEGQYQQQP
Description: as §1

[22] = target: T13, TSSK1 (Homo sapiens, UniProt Q9BXA7); assay: Kinase assay, 1 mM ATP
T13 construct: purchased Carna Biosciences
Description: as §1

[23] = target: T14, RET(G691S) (Homo sapiens, UniProt P07949, G691S); assay: Kinase assay, 1 mM ATP
T14 construct: purchased Carna Biosciences
Description: as §1

[24] = target: T15, BRK (Homo sapiens, UniProt Q13882); assay: Kinase assay, 1 mM ATP
T15 construct: purchased Carna Biosciences
T15 sequence (Q13882 whole entry): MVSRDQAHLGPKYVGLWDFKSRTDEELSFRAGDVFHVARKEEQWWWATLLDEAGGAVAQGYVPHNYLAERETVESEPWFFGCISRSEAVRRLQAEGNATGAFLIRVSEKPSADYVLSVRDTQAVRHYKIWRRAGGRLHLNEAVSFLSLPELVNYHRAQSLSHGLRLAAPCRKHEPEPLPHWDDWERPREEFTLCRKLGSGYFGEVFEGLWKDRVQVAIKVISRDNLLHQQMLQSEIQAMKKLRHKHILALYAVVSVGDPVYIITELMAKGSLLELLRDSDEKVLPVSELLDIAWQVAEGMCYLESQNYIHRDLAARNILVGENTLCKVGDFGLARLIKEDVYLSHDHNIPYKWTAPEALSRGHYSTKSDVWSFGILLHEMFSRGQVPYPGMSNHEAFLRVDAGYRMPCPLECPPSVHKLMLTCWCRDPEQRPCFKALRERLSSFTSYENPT
Description: as §1

[25] = target: T16, Erk5 (Homo sapiens, UniProt Q13164); assay: Kinase assay, 1 mM ATP
T16 construct: purchased Carna Biosciences
Description: as §1

[26] = target: Erk2 (Homo sapiens, UniProt P28482); assay: Kinase assay, 1 mM ATP
Description: as §1

[27] = target: T11, NEK9; assay: Kinase assay, ATP Km
[28] = target: T17, NIM1K (Homo sapiens, UniProt Q8IY84); assay: Kinase assay, ATP Km
T17 construct: purchased Carna Biosciences
T17 sequence (Q8IY84 whole entry): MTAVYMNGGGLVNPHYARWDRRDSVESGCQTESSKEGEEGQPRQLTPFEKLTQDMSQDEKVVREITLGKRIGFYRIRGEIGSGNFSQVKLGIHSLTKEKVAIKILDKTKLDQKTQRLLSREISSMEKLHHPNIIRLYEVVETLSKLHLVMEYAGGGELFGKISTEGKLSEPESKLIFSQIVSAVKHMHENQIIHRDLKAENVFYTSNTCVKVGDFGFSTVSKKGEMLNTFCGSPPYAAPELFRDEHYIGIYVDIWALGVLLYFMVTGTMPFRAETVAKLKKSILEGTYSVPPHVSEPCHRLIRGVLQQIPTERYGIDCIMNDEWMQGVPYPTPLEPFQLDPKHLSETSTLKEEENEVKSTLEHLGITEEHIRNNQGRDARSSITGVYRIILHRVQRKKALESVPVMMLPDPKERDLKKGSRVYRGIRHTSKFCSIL

[29] = target: T18, PEK (Homo sapiens, UniProt Q9NZJ5); assay: Kinase assay, ATP Km
T18 construct: purchased Carna Biosciences

`C[C@@H](N)COc1ccc(-c2cnc3ccc(N[C@H](C)c4cccc(F)c4)nn23)cc1.O=C(O)CCCCC(=O)O` [DS-6051b] was tested, and the inhibition at 0.04 µM [1] was 96.7%, the “% Inhibition” value ([1]; 0.04μM, ATP Km) was “potently inhibited” and the “% Inhibition” value ([2]; 0.2μM, 1 mM ATP) was “almost completely inhibited”. The inhibition at 0.2 µM ([2]; 0.2μM, 1 mM ATP) was 96.1%, the IC50 ([2]; ATP: 1 mM) was 15.4 nM and the inhibition at 0.2 µM [3] was 2.2%. The inhibition at 0.2 µM [4] was 0.123%, the inhibition at 0.04 µM [5] was 7.7% and the inhibition at 0.04 µM [6] was 101%. The IC50 [6] was “a few nanomolar”, the IC50 ([6]; read-out: IC50) was 2.28 nM and the inhibition at 0.04 µM [7] was 9.3%. The inhibition at 0.04 µM [8] was -0.257%, the inhibition at 0.04 µM [9] was 8.7% and the inhibition at 0.04 µM [10] was 8.5%. It also gave an inhibition at 0.2 µM [11] of -0.645%, an inhibition at 0.2 µM [12] of 2.5% and an inhibition at 0.2 µM [13] of -6.2%. It also gave an inhibition at 0.2 µM [14] of -11.4%, an inhibition at 0.2 µM [15] of 7.1% and an inhibition at 0.2 µM [16] of 0.7%. It also gave an inhibition at 0.2 µM [17] of 3.1%, an inhibition at 0.2 µM [18] of 4% and an inhibition at 0.2 µM [19] of -1.1%. For the same molecule, the inhibition at 0.2 µM [20] was -3.5%, the inhibition at 0.2 µM [21] was 4.8% and the inhibition at 0.2 µM [22] was -2.6%. It also gave an inhibition at 0.2 µM [23] of -0.256%, an inhibition at 0.2 µM [24] of 13.4% and an inhibition at 0.2 µM [25] of 5.2%. It also gave an inhibition at 0.2 µM [26] of -3.8%, an inhibition at 0.04 µM [27] of 1.5% and an inhibition at 0.04 µM [28] of -2.8%. It also gave an inhibition at 0.04 µM [29] of 6.2%.

Reference: article PMC6688997 (Nature Communications, 2019)
